{"source": "patent US20110165173A1", "about": "“THERAPEUTIC AGENT AND DETECTION REAGENT FOR ARTERIOSCLEROTIC DISEASE WHICH TARGETS FOR SALUSIN” (PROTEINEXPRESS CO., LTD., priority 2007, published 2011)", "assay_type_in_all_cases": "in vivo", "key": {"[1]": {"tested_on": "macrophages of apoE-deficient mice", "experiment": "Cholesterol efflux caused by HDL in macrophages collected from treated apoE-deficient mice", "conditions": "0.6 nmol/kg/h, four weeks; P<0.01", "procedure": "(§1) 13-week-old male apoE-deficient mice (72 mice) were divided into the following 6 groups: (i) physiological salt saline (control); (ii) salusin-α (0.6 nmol/kg/h); (iii) salusin-β (0.6 nmol/kg/h); (iv) salusin-α (0.6 nmol/kg/h)+anti-salusin-α serum (1.4 μg/kg/h); (v) salusin-β (0.6 nmol/kg/h)+anti-salusin-β serum (1.4 μg/kg/h); and (vi) anti-salusin-β serum (1.4 μg/kg/h). The mice were subjected to continuous subcutaneous administration with the use of an osmotic mini-pump for 4 to 8 weeks. The osmotic mini-pump and the solution contained therein were changed every week.\nMacrophages collected in the above manner were kept warm for 24 hours in a culture solution prepared as above containing oxidized LDL (10 μg/ml) labeled with [^3H]cholesterol (74 kBq/mL) and washed twice with PBS. Thereafter, the macrophages were kept warm for 16 hours in an RPMI1640 solution containing 0.1% BSA to which HDL (15 μg/mL) had been added. The culture solution was centrifuged at 15,000 rpm for 10 minutes so as to remove the residues therefrom. […] The radioactivity of [^3H]cholesterol in the culture solution and that in the cell extraction solution were assayed: cholesterol efflux (%)=the radioactivity of [^3H]cholesterol in the culture solution/the radioactivity of [^3H]cholesterol in the culture solution+the radioactivity of [^3H]cholesterol in the cell extraction solution×100"}, "ABCA1": {"tested_on": "ABCA1", "experiment": "ABCA1 expression by macrophages of treated apoE-deficient mice (Western blotting)", "conditions": "0.6 nmol/kg/h, four weeks; range given jointly for ABCA1, ABCG1, SR-BI; P<0.05", "procedure": "as §1\n(§2) Macrophages were collected as in the experiment in (1), and the protein expression of the gene involved in foaming of macrophages (i.e., scavenger receptors CD36 and SR-A capable of recognizing oxidized LDL, intracellular cholesterol esterification enzyme ACAT1, and ABCA1, ABCG1, and SR-BI, which are involved in cholesterol efflux) was analyzed by Western blotting. For the internal standard of the macrophage function, β-actin expression was also examined. For quantification of the band concentration, Analyzer (ATTO Corporation, Tokyo) was used."}, "SR-BI": {"tested_on": "SR-BI", "experiment": "SR-BI expression by macrophages of treated apoE-deficient mice (Western blotting)", "conditions": "0.6 nmol/kg/h, four weeks; range given jointly for ABCA1, ABCG1, SR-BI; P<0.05", "procedure": "as §1, §2"}, "ABCG1": {"tested_on": "ABCG1", "experiment": "ABCG1 expression by macrophages of treated apoE-deficient mice (Western blotting)", "conditions": "0.6 nmol/kg/h, four weeks; range given jointly for ABCA1, ABCG1, SR-BI; P<0.05", "procedure": "as §1, §2"}}}
{"substance": "salusin-α: peptide (SEQ ID NO: 1) comprising 28 amino acid residues, generated by processing from preprosalusin (SGALPPAPAAPRPALRAQRAGPAGPGAK; listed as Homo sapiens)", "values": [{"measurement": "cholesterol efflux caused by HDL relative to control", "setting": "[1]", "value": "approximately 2 times"}, {"measurement": "ABCA1 protein expression relative to initial level", "setting": "ABCA1", "value": "1.5 to 2", "unit": "times"}, {"measurement": "SR-BI protein expression relative to initial level", "setting": "SR-BI", "value": "1.5 to 2", "unit": "times"}, {"measurement": "ABCG1 protein expression relative to initial level", "setting": "ABCG1", "value": "1.5 to 2", "unit": "times"}]}
